Key:
Assay in all cases: relative viability (nuclei count vs DMSO), 5 days (fraction); higher = more cells survive
Crizotinib + Trametinib = compound: C[C@@H](Oc1cc(-c2cnn(C3CCNCC3)c2)cnc1N)c1c(Cl)ccc(F)c1Cl [Crizotinib] + CC(=O)Nc1cccc(-n2c(=O)n(C3CC3)c(=O)c3c(Nc4ccc(I)cc4F)n(C)c(=O)c(C)c32)c1 [Trametinib] (partner 0.02 µM)
Method in brief: (§1)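 The day after seeding in 1536-well plates, lung cancer cell lines were treated by pin tool with a single drug, or with a fixed anchor-drug dose together with five library-drug doses (not always all listed) in √10 steps. After 5 days, a combined fix-and-stain solution (final 0.05% Triton X-100, 1% formaldehyde, 1 ug/ml Hoechst) was added. Nuclei counted on 4× images gave relative viability as treated counts over vehicle counts, reported as the median of duplicate plates.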

Crizotinib + Luminespib = compound: C[C@@H](Oc1cc(-c2cnn(C3CCNCC3)c2)cnc1N)c1c(Cl)ccc(F)c1Cl [Crizotinib] + CCNC(=O)c1noc(-c2cc(C(C)C)c(O)cc2O)c1-c1ccc(CN2CCOCC2)cc1 [Luminespib] (partner 0.01 µM)
Method in brief: as §1

Olaparib + Vorinostat = compound: O=C(c1cc(Cc2n[nH]c(=O)c3ccccc23)ccc1F)N1CCN(C(=O)C2CC2)CC1 [Olaparib] + O=C(CCCCCCC(=O)Nc1ccccc1)NO [Vorinostat] (partner 1 µM)
Method in brief: as §1

Carfilzomib + Lapatinib = compound: CC(C)C[C@H](NC(=O)[C@H](CCc1ccccc1)NC(=O)CN1CCOCC1)C(=O)N[C@@H](Cc1ccccc1)C(=O)N[C@@H](CC(C)C)C(=O)[C@@]1(C)CO1 [Carfilzomib] + CS(=O)(=O)CCNCc1ccc(-c2ccc3ncnc(Nc4ccc(OCc5cccc(F)c5)c(Cl)c4)c3c2)o1 [Lapatinib] (partner 2 µM)
Method in brief: as §1

Olaparib + Decitabine = compound: O=C(c1cc(Cc2n[nH]c(=O)c3ccccc23)ccc1F)N1CCN(C(=O)C2CC2)CC1 [Olaparib] + Nc1ncn([C@H]2C[C@H](O)[C@@H](CO)O2)c(=O)n1 [Decitabine] (partner 2 µM)
Method in brief: as §1

NCI-H1793 gave a relative viability (Crizotinib + Trametinib; first compound 0.03162 µM) of 0.467, a relative viability (Crizotinib + Trametinib; first compound 0.1 µM) of 0.399 and a relative viability (Crizotinib + Trametinib; first compound 1 µM) of 0.461. The relative viability (Crizotinib + Luminespib; first compound 0.03162 µM) was 0.209, the relative viability (Crizotinib + Luminespib; first compound 0.1 µM) was 0.178 and the relative viability (Crizotinib + Luminespib; first compound 1 µM) was 0.161. The relative viability (Olaparib + Vorinostat; first compound 0.08 µM) was 0.841, the relative viability (Olaparib + Vorinostat; first compound 0.253 µM) was 0.707 and the relative viability (Olaparib + Vorinostat; first compound 2.53 µM) was 0.683. The relative viability (Olaparib + Vorinostat; first compound 8 µM) was 0.679, the relative viability (Carfilzomib + Lapatinib; first compound 0.003162 µM) was 0.772 and the relative viability (Carfilzomib + Lapatinib; first compound 0.01 µM) was 0.476. The relative viability (Carfilzomib + Lapatinib; first compound 0.03162 µM) was 0.424, the relative viability (Carfilzomib + Lapatinib; first compound 0.1 µM) was 0.114 and the relative viability (Olaparib + Decitabine; first compound 0.08 µM) was 0.338. The relative viability (Olaparib + Decitabine; first compound 0.253 µM) was 0.417, the relative viability (Olaparib + Decitabine; first compound 2.53 µM) was 0.337 and the relative viability (Olaparib + Decitabine; first compound 8 µM) was 0.326.

— the supplement of paper PMC10307832
